# Values of other authors, collected in patent US8138336B2, “Pyrrolotriazine derivatives useful for treating cancer through inhibition of aurora kinase” (Bayer HealthCare LLC, priority 2007, dated 2012).
# Where two headings read alike, the source gives them in different places.
# Tested on: breast tumors
smiles,measurement,setting,value
CC(=O)O[C@@]12CO[C@@H]1C[C@H](O)[C@@]1(C)C(=O)[C@H](O)C3=C(C)[C@@H](OC(=O)[C@H](O)[C@@H](NC(=O)OC(C)(C)C)c4ccccc4)C[C@@](O)([C@@H](OC(=O)c4ccccc4)[C@H]21)C3(C)C [Docetaxel],response rate to Docetaxel treatment,patients with breast tumors with high Aurora-A mRNA levels,41%
same,response rate to Docetaxel treatment,patients with low Aurora-A mRNA breast tumors,71%
